The record followed here is PubChem BioAssay (NCI).

Experiment in all cases: NCI anticancer screen, dose series, 48 h
Assay [1] relates to A498 renal.
Assay [2] relates to ACHN renal.
The test system of assay [3] is CCRF-CEM leukemia.
The test system of assay [4] is EKVX NSCLC.
In assay [5] the test system is HCT-15 colon.
The subject of assay [6] is HOP-62 NSCLC.
Assay [7] relates to HT29 colon.
The test system of assay [8] is NCI-H460 lung.
The test system of assay [9] is NCI-H522 lung.
For assay [10], the system named is SK-MEL-28 melanoma.
Assay [11] deals with SK-MEL-5 melanoma.
The test system of assay [12] is SN12C renal.
Assay [13] relates to SNB-75 CNS.
Assay [14] deals with UACC-62 melanoma.
Assay [15] has as its system MCF7 breast.
The subject of assay [16] is MDA-MB-231 breast.
For assay [17], the system named is MDA-MB-435.
The subject of assay [18] is T-47D breast.
Assay [19] deals with SR leukemia.

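Assay format: 96-well plates, 48-hour exposure. The concentration for full growth arrest is given as TGI.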 Bounds are passed on as bounds.

Take `CCOC(=O)c1nc2ccc(Cl)cc2c2c1CCO2`: the TGI in assay [1], in assay [2], in [3], in [4], in assay [5] and in [6] was above 100 µM in each case. Also, the TGI in [7], in assay [8], in assay [9], in assay [10], in assay [11] and in [12] was above 100 µM in each case. Besides, the TGI in assay [13] was 88.6 µM; in assay [14] it was above 100 µM.

With `COc1ccc(Nc2nc(N)c(C(=O)c3ccc(OC)cc3)s2)cc1`, the TGI in assay [1] is above 64.7 µM; in assay [4] it was above 89.1 µM; in assay [5], above 100 µM; in assay [7], above 48.5 µM; in [15] it was above 100 µM; in assay [16], above 72.4 µM. Further, the TGI is 208 nM in assay [17]; above 54.8 µM in [8]; 0.455 µM in [9]; above 68.6 µM in assay [10]; above 100 µM in [11]; above 64.5 µM in assay [12]. In addition, the TGI in [13] is 6.26 µM; in assay [18] it was above 100 µM; in [14] it was above 100 µM.

Consider `O=C1C(Cl)C(c2ccc(Cl)cc2)N1n1cnc2ccccc2c1=O` (centres undefined), for which the TGI in assay [2] is above 100 µM; in assay [3], above 100 µM; in assay [4], 82.4 µM; in assay [5], above 100 µM; in [6] it was above 100 µM; in assay [7], above 100 µM. Moreover, the TGI in assay [8], in assay [9], in assay [10], in assay [11], in assay [12] and in [13] was above 100 µM in each case. In addition, the TGI in assay [19] and in assay [14] was above 100 µM each time.

For `Cn1c(=O)c2c(nc(C[N+]3([O-])CCOCC3)n2C)n(C)c1=O`, the TGI in assay [2], in assay [3], in assay [4], in assay [5], in assay [6] and in [7] was above 100 µM throughout. The TGI in [8], in [9], in [10], in assay [11], in [12] and in [13] was above 100 µM in each case. The TGI in assay [19] and in [14] was above 100 µM each time.

Regarding `NC12CC3CC(C1)CC(Cl)(C3)C2`, the TGI in assay [1], in assay [2], in assay [3], in assay [4], in assay [6] and in [7] was above 100 µM throughout. The TGI in assay [8], in assay [9], in assay [10], in [13] and in [14] was above 100 µM throughout.

As to `COc1cccc(/C(C=O)=C(\Cl)c2ccc(OC)c(OC)c2)c1`, the TGI in assay [2] turned out to be 26.4 µM; in [3], 33.5 µM; in assay [4] it was 33.9 µM; in [5] it was 25.6 µM; in [6], 25.1 µM; in [7], 27.5 µM. Moreover, the TGI was 28 µM in [8]; 22.1 µM in assay [9]; 29 µM in assay [10]; 25.3 µM in [11]; 27.8 µM in assay [12]; 21.3 µM in [13]. The TGI in assay [19] came to 82.1 µM; in [14], 17.4 µM.

Turning to `NC1=NC2(O)c3ccccc3C(=O)C2(O)N1` (centres undefined), the TGI in assay [1], in assay [2], in assay [3], in [4], in assay [5] and in assay [6] was above 100 µM each time. For the same molecule, the TGI in assay [7], in assay [8], in assay [9], in assay [10], in assay [11] and in assay [12] was above 100 µM throughout. In addition, the TGI in [13], in assay [19] and in assay [14] was above 100 µM in each case.

As to `COc1ccc(-c2onc(-c3c(C)cc(C)cc3C)c2C2=NCCCN2)cc1`, the TGI in [2], in [3], in [4], in assay [5], in assay [6] and in assay [7] was above 100 µM throughout. Further, the TGI in assay [8] is above 100 µM; in assay [9], 35.5 µM; in [10], above 100 µM; in [11], 60.9 µM; in [12] it was above 100 µM; in [19], above 100 µM. Moreover, the TGI in [14] is above 100 µM.

Consider `CCOC(=O)C1=C(O)c2ccccc2C(=O)C1=O`, for which the TGI in assay [1], in assay [2], in [3], in assay [4], in assay [5] and in assay [6] was above 100 µM in each case. Moreover, the TGI in [7], in assay [8], in assay [9], in [10], in assay [11] and in assay [12] was above 100 µM in each case. Moreover, the TGI in [13], in [19] and in assay [14] was above 100 µM throughout.

As for `CCOC(OCC)c1ccc(/C=C/c2cc(OC)c(OC)c(OC)c2)cc1`, the TGI in assay [1] was 45.4 µM; in assay [2], above 100 µM; in [3] it was 37.3 µM; in assay [4], above 100 µM; in assay [5], 30.7 µM; in assay [6] it was 56.6 µM. Also, the TGI in [7] was 33.6 µM; in [8], 38.1 µM; in [9], above 100 µM; in [10], 56.7 µM; in [11] it was 28.5 µM; in assay [12], 36.9 µM. Also, the TGI in assay [13] was determined as 57.5 µM; in [14], 33.2 µM.
